For 29 molecules, Ki and IC50 results are on record in patent US8614206B2 (Genentech, Inc., priority 2011, dated 2013).

The term Ki denotes a measure of affinity in units of concentration, obtained from inhibition or displacement. Read a low Ki as higher affinity. The term IC50 denotes the concentration at which inhibition is half-maximal.

For the first assay, the target named is PIM1 (Homo sapiens (Human), UniProt P11309). Nature of the assay: Pim kinase inhibition, PIM1 LC3K (Example 901). In kind it is biochemical.
Chain of PIM1 (P11309 whole entry): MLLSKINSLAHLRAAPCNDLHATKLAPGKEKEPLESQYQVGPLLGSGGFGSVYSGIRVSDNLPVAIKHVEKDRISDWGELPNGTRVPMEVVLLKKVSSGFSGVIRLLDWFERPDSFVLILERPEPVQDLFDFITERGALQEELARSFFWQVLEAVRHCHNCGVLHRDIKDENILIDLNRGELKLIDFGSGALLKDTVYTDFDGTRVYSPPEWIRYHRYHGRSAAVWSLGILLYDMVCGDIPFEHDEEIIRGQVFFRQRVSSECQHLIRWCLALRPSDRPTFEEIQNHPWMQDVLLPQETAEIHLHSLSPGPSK
Settings: not given
`Cn1ncc(NC(=O)c2nc(-c3c(F)cccc3F)sc2N)c1N1CCC2(CNC2)C1` [Example 359, 5-amino-N-[5-(2,6-diazaspiro[3.4]octan-6-yl)-1-methyl-pyrazol-4-yl]-2-(2,6-difluorophenyl)thiazole-4-carboxamide] displayed an inhibition constant Ki of 0.783 nM. This counts as sub-nanomolar. Same read-out and setting: as for `Cn1ncc(NC(=O)c2nc(-c3c(F)cccc3F)sc2N)c1N1CCC2(CCNC2=O)CC1` [Example 360, 5-amino-2-(2,6-difluorophenyl)-N-[1-methyl-5-(1-oxo-2,8-diazaspiro[4.5]decan-8-yl)pyrazol-4-yl]thiazole-4-carboxamide], the figure is 0.391 nM; as for `Cn1ncc(NC(=O)c2nc(-c3c(F)cccc3F)sc2N)c1N1CCCN(C2CNC2)CC1` [Example 362, 5-amino-N-[5-[4-(azetidin-3-yl)-1,4-diazepan-1-yl]-1-methyl-pyrazol-4-yl]-2-(2,6-difluorophenyl)thiazole-4-carboxamide], 0.25 nM. On to `CCn1ncc(NC(=O)c2nc(-c3c(F)cccc3F)sc2N)c1N1CC[C@H](OC)[C@@H](N)CC1` [Example 364, 5-amino-N-(5-((4S,5S)-4-amino-5-methoxyazepan-1-yl)-1-ethyl-1H-pyrazol-4-yl)-2-(2,6-difluorophenyl)thiazole-4-carboxamide], for which the Ki came out at 0.247 nM. This Ki and that of the molecule before are within 1.5-fold of each other. As to `CCn1ncc(NC(=O)c2nc(-c3c(F)cccc3F)sc2N)c1N1CC[C@H](N)[C@H](OC)CC1` [Example 376, 5-amino-N-(5-((4S,5R)-4-amino-5-methoxyazepan-1-yl)-1-ethyl-1H-pyrazol-4-yl)-2-(2,6-difluorophenyl)thiazole-4-carboxamide], the inhibition constant Ki worked out at 0.223 nM.

With `Cn1ncc(NC(=O)c2nc(-c3c(F)cccc3F)sc2N)c1N1CCNCC(C#N)C1` (centres unmarked) [Example 382, 5-amino-N-[5-(6-cyano-1,4-diazepan-1-yl)-1-methyl-pyrazol-4-yl]-2-(2,6-difluorophenyl)thiazole-4-carboxamide], the inhibitory constant (Ki) stood at 2.81 nM. `CC(=O)NC1(C)CCCN(c2c(NC(=O)c3nc(-c4ncccc4F)sc3N)cnn2C)CC1` (centres unmarked) [Example 384, N-[5-(4-acetamido-4-methyl-azepan-1-yl)-1-methyl-pyrazol-4-yl]-5-amino-2-(3-fluoro-2-pyridyl)thiazole-4-carboxamide] showed a Ki of 0.613 nM. On the same count and under the same terms, as for `CO[C@@H]1CCN(c2c(NC(=O)c3nc(-c4c(F)cccc4F)sc3N)cnn2C2CC2)CC[C@@H]1N` [Example 386, 5-amino-N-(5-((4S,5R)-4-amino-5-methoxyazepan-1-yl)-1-cyclopropyl-1H-pyrazol-4-yl)-2-(2,6-difluorophenyl)thiazole-4-carboxamide], the figure is 0.103 nM; as for `Cn1ncc(NC(=O)c2nc(-c3cccc(O)n3)sc2N)c1N1CCC[C@H](N)CC1` [Example 393, 5-amino-N-[5-[(4S)-4-aminoazepan-1-yl]-1-methyl-pyrazol-4-yl]-2-(6-hydroxy-2-pyridyl)thiazole-4-carboxamide], 14 nM.

On to `Cn1ncc(NC(=O)c2nc(-c3ccnc(F)c3)sc2N)c1N1CCC[C@H](N)CC1` [Example 417, 5-amino-N-[5-[(4S)-4-aminoazepan-1-yl]-1-methyl-pyrazol-4-yl]-2-(2-fluoro-4-pyridyl)thiazole-4-carboxamide], for which affinity was put at a Ki of 2.12 nM.

`Cn1cc(-c2nc(C(=O)Nc3cnn(C)c3N3CCC[C@H](N)CC3)c(N)s2)cn1` [Example 419, 5-amino-N-[5-[(4S)-4-aminoazepan-1-yl]-1-methyl-pyrazol-4-yl]-2-(1-methylpyrazol-4-yl)thiazole-4-carboxamide] displayed an inhibition constant (Ki) of 0.785 nM. This Ki is about 2.7-fold lower than that of the molecule before. Still for that read-out and setting: as for `Cn1ncc(NC(=O)c2nc(-c3cncc(F)c3)sc2N)c1N1CCC[C@H](N)CC1` [Example 420, 5-amino-N-[5-[(4S)-4-aminoazepan-1-yl]-1-methyl-pyrazol-4-yl]-2-(5-fluoro-3-pyridyl)thiazole-4-carboxamide], the figure is 4.25 nM; as for `Cc1noc(C)c1-c1nc(C(=O)Nc2cnn(C)c2N2CCC[C@H](N)CC2)c(N)s1` [Example 421, 5-amino-N-[5-[(4S)-4-aminoazepan-1-yl]-1-methyl-pyrazol-4-yl]-2-(3,5-dimethylisoxazol-4-yl)thiazole-4-carboxamide], 4.37 nM; as for `COC1CCC2(c3c(NC(=O)c4nc(-c5ccccc5F)sc4N)cnn3C)CCC1N2` (centres unmarked) [Example 423, 5-amino-2-(2-fluorophenyl)-N-[5-(2-methoxy-8-azabicyclo[3.2.1]octan-5-yl)-1-methyl-pyrazol-4-yl]thiazole-4-carboxamide], 0.362 nM. The same measure, in the same setting: then `COc1nccc(C)c1-c1nc(C(=O)Nc2cnn(C)c2N2CCC[C@H](N)CC2)c(N)s1` [Example 427, 5-amino-N-[5-[(4S)-4-aminoazepan-1-yl]-1-methyl-pyrazol-4-yl]-2-(2-methoxy-4-methyl-3-pyridyl)thiazole-4-carboxamide], with 3.7 nM. `Cc1ncccc1-c1nc(C(=O)Nc2cnn(C)c2N2CC[C@@H](N)[C@H](F)CC2)c(N)s1` [Example 430, 5-amino-N-[5-[(4R,5R)-4-amino-5-fluoro-azepan-1-yl]-1-methyl-pyrazol-4-yl]-2-(2-methyl-3-pyridyl)thiazole-4-carboxamide] gave a Ki of 1.17 nM. Same read-out and setting: as for `Cc1cc(-c2nc(C(=O)Nc3cnn(C)c3N3CC[C@@H](N)[C@H](F)CC3)c(N)s2)ccn1` [Example 431, 5-amino-N-[5-[(4R,5R)-4-amino-5-fluoro-azepan-1-yl]-1-methyl-pyrazol-4-yl]-2-(2-methyl-4-pyridyl)thiazole-4-carboxamide], the figure is 1.04 nM. Same read-out and setting: then `Cc1nn(C)cc1-c1nc(C(=O)Nc2cnn(C)c2N2CC[C@@H](N)[C@H](F)CC2)c(N)s1` [Example 437, 5-amino-N-[5-[(4R,5R)-4-amino-5-fluoro-azepan-1-yl]-1-methyl-pyrazol-4-yl]-2-(1,3-dimethylpyrazol-4-yl)thiazole-4-carboxamide], with 0.477 nM; and `Cn1ncc(NC(=O)c2nc(-c3cc(C#N)ccc3F)sc2N)c1N1CC[C@@H](N)[C@H](F)CC1` [Example 442, 5-amino-N-[5-[(4R,5R)-4-amino-5-fluoro-azepan-1-yl]-1-methyl-pyrazol-4-yl]-2-(5-cyano-2-fluoro-phenyl)thiazole-4-carboxamide], with 1.08 nM; and `Cc1cc(-c2nc(C(=O)Nc3cnn(C)c3N3CC[C@@H](N)[C@H](F)CC3)c(N)s2)cc(C)n1` [Example 443, 5-amino-N-[5-[(4R,5R)-4-amino-5-fluoro-azepan-1-yl]-1-methyl-pyrazol-4-yl]-2-(2,6-dimethyl-4-pyridyl)thiazole-4-carboxamide], with 2.54 nM. On the same count and under the same terms, as for `Cn1ncc(NC(=O)c2nc(-c3cncc(C#N)c3)sc2N)c1N1CC[C@@H](N)[C@H](F)CC1` [Example 444, 5-amino-N-[5-[(4R,5R)-4-amino-5-fluoro-azepan-1-yl]-1-methyl-pyrazol-4-yl]-2-(5-cyano-3-pyridyl)thiazole-4-carboxamide], the figure is 35.4 nM; as for `Cc1cnc(C)c(-c2nc(C(=O)Nc3cnn(C)c3N3CC[C@@H](N)[C@H](F)CC3)c(N)s2)c1` [Example 445, 5-amino-N-[5-[(4R,5R)-4-amino-5-fluoro-azepan-1-yl]-1-methyl-pyrazol-4-yl]-2-(2,5-dimethyl-3-pyridyl)thiazole-4-carboxamide], 0.446 nM; as for `Cn1ncc(NC(=O)c2nc(-c3c(F)cncc3F)sc2N)c1N1CC[C@H](N)[C@@H](F)CC1` [Example 471, 5-amino-N-[5-[(4S,5S)-4-amino-5-fluoro-azepan-1-yl]-1-methyl-pyrazol-4-yl]-2-(3,5-difluoro-4-pyridyl)thiazole-4-carboxamide], 0.242 nM. The molecule `COC1(C)CC(N)CCN(c2c(NC(=O)c3nc(-c4c(F)cncc4F)sc3N)cnn2C)C1` (centres unmarked) [Example 474, 5-amino-N-[5-(5-amino-3-methoxy-3-methyl-azepan-1-yl)-1-methyl-pyrazol-4-yl]-2-(3,5-difluoro-4-pyridyl)thiazole-4-carboxamide] returned a Ki of 0.425 nM. In turn, `COC1(C)CC(N)CCN(c2c(NC(=O)c3nc(-c4ccncc4F)sc3N)cnn2C)C1` (centres unmarked) [Example 475, 5-amino-N-[5-(5-amino-3-methoxy-3-methyl-azepan-1-yl)-1-methyl-pyrazol-4-yl]-2-(3-fluoro-4-pyridyl)thiazole-4-carboxamide] yielded an inhibitory constant (Ki) of 0.212 nM.

The test system of the next assay is BaF3 parental cells. In words: In vitro cell proliferation, BaF3 parental line + IL3 (CellTiter-Glo). In kind it is cell-based, murine. The note with it: BaF3 parental cells with IL-3, incubated overnight; read-out: Prolif BaF3 + IL3 (IC50). On the technique in general: Cellular ATP, detected with luciferase, serves as a proxy for viable cell number.
Method: BaF3 parental line was obtained from the DSMZ repository. BaF3 lines transfected with PIM 1 or PIM2 were generated. Mouse IL-3 was purchased from R&D Systems. G418 was purchased from Clontech. Media for BaF3 parental line contained RPMI, 10% FBS, 2 mM L-Glutamine, 2 ng/mL mIL-3. Media for BaF3 PIM1 & 2 lines contained RPMI, 10% FBS, 2 mM L-Glutamine, 250 μg/mL.
BaF3, a murine interleukin-3 dependent pro-B cell line, parental cells, BaF3 PIM1 cells, BaF3 PIM2 cells, and MM1.S (multiple myeloma) cells were seeded at 2 k/well, 5 k/well, 5 k/well, and 10 k/well respectively, in a 384-well plate, at 45 μL/well. Test compound was added at 5 μL/well. BaF3 cells (parental and transfected) were incubated overnight, while MM1.S cells were incubated for 72 hours at 37° C., 5% CO2. CELL TITER GLO® Reagent (Promega) was added at 50 μL/well, the plates were incubated for 30 minutes, and their luminescence read on an HT Analyst. IC50/EC50 values for the test compound were calculated.
On to `Cn1ncc(NC(=O)c2nc(-c3c(F)cccc3F)sc2N)c1N1CCC(N)C(O)CC1` (single isomer, unassigned) [Example 333, 5-amino-N-[5-(4-amino-5-hydroxy-azepan-1-yl)-1-methyl-pyrazol-4-yl]-2-(2,6-difluorophenyl)thiazole-4-carboxamide], for which the IC50 is greater than 25000 nM.

Staying with this assay, now noted: Mus musculus, BaF3, BaF3 parental cells with IL-3, incubated overnight; read-out: Prolif BaF3 + IL3 (IC50).
In the case of `Cn1ncc(NC(=O)c2nc(-c3c(F)cccc3F)sc2N)c1N1CCC(N)C(C(F)F)CC1` (single isomer, unassigned) [Example 511, 5-amino-N-[5-[4-amino-5-(difluoromethyl)azepan-1-yl]-1-methyl-pyrazol-4-yl]-2-(2,6-difluorophenyl)thiazole-4-carboxamide], the half-inhibitory concentration (IC50) turned out to be 24300 nM. On the same count and under the same terms, as for `CC(=O)O[C@H]1CCN(c2c(NC(=O)c3nc(-c4c(F)cccc4F)sc3N)cnn2C)CC[C@H]1N` [Example 487, [(4S,5R)-5-amino-1-[4-[[5-amino-2-(2,6-difluorophenyl)thiazole-4-carbonyl]amino]-2-methyl-pyrazol-3-yl]azepan-4-yl]acetate], the figure is 20100 nM. On the same count and under the same terms, then `Cn1ncc(NC(=O)c2nc(-c3c(F)cccc3F)sc2N)c1N1CC[C@@H]2OC(=O)N[C@]2(C)CC1` [Example 509, 5-amino-2-(2,6-difluorophenyl)-N-(1-methyl-5-((3aR,8aS)-3a-methyl-2-oxotetrahydro-2H-oxazolo[5,4-d]azepin-6(7H,8H,8aH)-yl)-1H-pyrazol-4-yl)thiazole-4-carboxamide], with greater than 25000 nM.
